# According to ChEMBL document CHEMBL1687875, “Flavonoids from eight tropical plant species that inhibit the multidrug resistance transporter ABCG2” (J Nat Prod, 2011):
# Target: T1, Broad substrate specificity ATP-binding cassette transporter ABCG2 (Homo sapiens, UniProt Q9UNQ0)
# T1 sequence (Q9UNQ0 whole entry): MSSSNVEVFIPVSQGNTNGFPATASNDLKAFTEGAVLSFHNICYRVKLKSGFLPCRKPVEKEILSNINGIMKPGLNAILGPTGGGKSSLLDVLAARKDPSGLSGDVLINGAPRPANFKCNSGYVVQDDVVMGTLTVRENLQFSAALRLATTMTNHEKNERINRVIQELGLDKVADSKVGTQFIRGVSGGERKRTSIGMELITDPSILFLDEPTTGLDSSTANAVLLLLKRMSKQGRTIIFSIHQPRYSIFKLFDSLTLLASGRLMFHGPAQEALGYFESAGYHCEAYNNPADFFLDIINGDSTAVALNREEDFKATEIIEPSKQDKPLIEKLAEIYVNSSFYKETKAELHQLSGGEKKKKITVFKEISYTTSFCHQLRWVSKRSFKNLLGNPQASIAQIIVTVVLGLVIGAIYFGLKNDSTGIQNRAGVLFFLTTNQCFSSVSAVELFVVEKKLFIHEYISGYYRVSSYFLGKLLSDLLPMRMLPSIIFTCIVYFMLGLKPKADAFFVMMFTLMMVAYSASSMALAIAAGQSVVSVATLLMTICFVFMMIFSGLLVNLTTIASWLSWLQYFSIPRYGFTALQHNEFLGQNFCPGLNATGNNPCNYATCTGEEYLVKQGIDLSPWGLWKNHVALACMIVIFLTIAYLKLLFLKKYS
# Experiment: Inhibition of ABCG2 expressed in human NCI-H460 cells assessed as increase in PhA accumulation after 2 to 20 hrs relative to fumitremorgin C
row,Compound,IC50 [µM]
1,COc1cc(O)c2c(=O)c(OC)c(-c3ccc(O)c(OC)c3)oc2c1 [PACHYPODOL],17.2
2,COc1ccc([C@@H]2CC(=O)c3c(O)cc(O)c(CC=C(C)C)c3O2)cc1,22.6
3,COc1cc(O)c2c(=O)c(OC)c(-c3ccc(OC)c(O)c3)oc2c1 [AYANIN],5.7
4,O=c1cc(-c2ccc(O)c(O)c2)oc2cc(O)cc(O)c12 [LUTEOLIN],8.9
5,CC(C)=CCC/C(C)=C/Cc1c(O)cc(O)c2c1O[C@H](c1cc(O)cc(O)c1)CC2=O,15.5
6,COc1ccc2c3c([nH]c2c1)[C@H](C=C(C)C)N1C(=O)[C@@H]2CCCN2C(=O)[C@@H]1C3 [FUMITREMORGIN],0.8

# The remaining lines, values ahead:
row,IC50 [µM],Compound
1,6.5,C/C(=C/Cc1c(-c2cc(O)c(O)cc2O)oc2c3c(cc(O)c2c1=O)OC(C)(C)C=C3)CO
2,5.7,CC(C)=CCC/C(C)=C/Cc1c(O)cc2oc(-c3ccc(O)cc3)c(O)c(=O)c2c1O [MACARANGIN]
3,4.1,CC(C)=CCc1c(O)c(CC=C(C)C)c2c(c1O)C(=O)C[C@@H](c1cc(O)cc(O)c1)O2
4,8.4,COc1cc(O)c(CC=C(C)C)c(-c2oc3cc(O)cc(O)c3c(=O)c2OC)c1
5,3.1,CC(C)=CCc1c(O)cc(O)c2c1O[C@H](c1ccc(O)cc1)CC2=O
6,6.6,COc1ccc([C@@H]2CC(=O)c3c(O)cc(O)c(CC=C(C)C)c3O2)cc1O
7,12.3,CC(C)=CCC/C(C)=C/Cc1c(O)cc(O)c2c1O[C@H](c1ccc(O)cc1)CC2=O [SOPHORAFLAVANONE A]
